This is an account of results in publication PMC8619001, “Discovery of New Ginsenol-Like Compounds with High Antiviral Activity” (Molecules, 2021).

A value given as a limit tells only on which side of the number the result lay.

The test system of one data set is HSV-1. Also noted: method as in PMID 20008902. The settings on record: HSV-1, Figure 1; cited from earlier work.
Data set [1] has as its system influenza virus A/Puerto Rico/8/1934 (H1N1). Briefly: organism not typed. The settings on record: MDCK, 24 h, read-out: IC50 (virus yield reduction). Format: cell-based, influenza virus A/Puerto Rico/8/34 (H1N1).
The next data set has as its target HA of A/Puerto Rico/8/34 (Influenza A virus, UniProt P03452). It is filed as biochemical, influenza virus A/Puerto Rico/8/34 (H1N1). The following applies: pH 5.
In data set [2] the test system is A/California/7/2009 (H1N1) pdm09. Nature of the data set: microbe, parasite or virus in culture. Format: cell-based, influenza virus A/California/07/09 (H1N1)pdm09. The following applies: Influenza A virus, H1N1, MDCK, 72 h, read-out: IC50 H1N1.
Data set [3] relates to influenza virus A/Puerto Rico/8/34 (H1N1). Briefly: organism not typed. Format: cell-based. The following applies: for IC50: MDCK, 72 h, read-out: IC50 H1N1.
The nature of data set [4]: In vivo toxicity study (LD50).
Data set [5] concerns HA of A/California/7/2009 (H1N1). It is filed as biochemical, influenza virus A/California/07/09 (H1N1)pdm09. The following applies: pH 5.
The test system of data set [6] is influenza virus A/Puerto Rico/8/34 (H1N1). Format: cell-based.
A further data set can be described thus: in vitro. The settings on record: dog.
In data set [7] the test system is B/Florida/4/2006 (Yamagata-like). Briefly: microbe, parasite or virus in culture. Format: cell-based, influenza virus B/Florida/4/2006 (Yamagata-like). The settings on record: Influenza B virus, MDCK, 72 h, read-out: IC50 H1N1.
Data set [8] has as its system HA of influenza viruses A of H3, H5, and H7 subtypes and influenza virus B. It is filed as biochemical. The settings on record: pH 5.
Data set [9] has as its system A/Mallard/Pennsylvania/1984 (H5N2). Nature of the data set: microbe, parasite or virus in culture. It is filed as cell-based, influenza virus A/mallard/Pennsylvania/10218/84 (H5N2). The settings on record: Influenza A virus, H1N1 / H5N2, MDCK, in Anas platyrhynchos, 72 h, read-out: IC50 H1N1.
Data set [10] concerns HA of A/Vladivostok/2/2009 (H1N1). Format: biochemical, influenza virus A/Vladivostok/2/2009 (H1N1). The following applies: pH 5.
The target in data set [11] is viral hemagglutinin (HA) of influenza virus A/Puerto Rico/8/34 (H1N1) (Influenza A virus, UniProt P03452). Format: biochemical.
The next data set deals with A/Aichi/2/1968 (H3N2). Nature of the data set: microbe, parasite or virus in culture. The following applies: Influenza A virus, H1N1 / H3N2, MDCK, 72 h, read-out: IC50 H1N1. Format: cell-based, influenza virus A/Aichi/2/68 (H3N2).
Another data set has as its system A/Anhui/1/2013 (H7N9). Briefly: microbe, parasite or virus in culture. The settings on record: Influenza A virus, H1N1 / H7N9, MDCK, 72 h, read-out: IC50 H1N1. It is filed as cell-based, influenza virus A/Anhui/1/2013 (H7N9).
Data set [12] deals with influenza virus A/Leningrad/134/17/1957 (H2N2). The settings on record: cited from earlier work.

viral hemagglutinin (HA) of influenza virus A/Puerto Rico/8/34 (H1N1), sequence (P03452 18-343 limits assumed): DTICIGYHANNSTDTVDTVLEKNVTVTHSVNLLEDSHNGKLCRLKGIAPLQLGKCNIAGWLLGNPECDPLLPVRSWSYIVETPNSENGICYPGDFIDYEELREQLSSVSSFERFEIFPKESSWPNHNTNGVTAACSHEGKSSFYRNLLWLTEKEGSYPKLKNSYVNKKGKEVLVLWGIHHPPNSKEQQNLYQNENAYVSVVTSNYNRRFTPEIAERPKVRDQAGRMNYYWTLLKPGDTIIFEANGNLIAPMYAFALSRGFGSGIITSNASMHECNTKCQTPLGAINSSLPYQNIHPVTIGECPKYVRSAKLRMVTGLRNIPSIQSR
viral hemagglutinin (HA) of influenza virus A/Puerto Rico/8/34 (H1N1), sequence (P03452 344-565 limits assumed): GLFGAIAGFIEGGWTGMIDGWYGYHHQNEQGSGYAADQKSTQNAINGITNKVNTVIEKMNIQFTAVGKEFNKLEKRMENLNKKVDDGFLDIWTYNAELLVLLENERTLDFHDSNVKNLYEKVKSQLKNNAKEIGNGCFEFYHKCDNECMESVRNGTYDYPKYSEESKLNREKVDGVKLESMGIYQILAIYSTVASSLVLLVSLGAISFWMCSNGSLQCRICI
HA of A/Puerto Rico/8/34, sequence (P03452 18-343 limits assumed): as the sequence (P03452 18-343 limits assumed) above
HA of A/Puerto Rico/8/34, sequence (P03452 344-565 limits assumed): as the sequence (P03452 344-565 limits assumed) above

In the case of `C=C1CC/C=C(\C)CC[C@@H]2[C@@H]1CC2(C)C` [Caryophyllene], the SI with HSV-1 is on record as 140.
Take `CC(=O)NC12CC(C)(C)C3CCC1(C)CCCC32C` [Compound 1a, (1S,3aR,4R,7aS)-N-(2,2,4,7a-tetramethyloctahydro-1,4-etanoinden-3a-yl)-acetamide]: the 50% inhibitory concentration (IC50) in data set [1] was found to be 0.15 µM; in data set [2], 10.7 ± 1.3 µM; in data set [3], 0.152 ± 0.03 µM; in data set [7], 1130 ± 141 µM; in data set [9], 133 ± 15.6 µM; in the data set on A/Aichi/2/1968 (H3N2), 789 ± 82 µM. For the same molecule, the IC50 in the data set with A/Anhui/1/2013 (H7N9) is 126 ± 11.8 µM. The “Inhibition of fusogenic activity of viral HA” value on HA of A/Puerto Rico/8/34 was “highest activity”; in data set [5], “less sensitive”; in data set [8], “did not decrease their fusogenic activity, or this effect was observed only at the highest concentrations”; in data set [10], “highest activity”. In [4], this molecule displayed an LD50 of more than 5000 mg/kg. Moreover, the “Period of presence in the culture medium giving the most pronounced effect” value in data set [6] was 0 to 2 h post-infection (hpi). Also, the CC50 in the data set “in vitro” is more than 1140 µM. The “Effect on the hemagglutinating titre of the virus” value in data set [11] is “did not change the hemagglutinating titre of the virus”.
Molecule `CCC(=O)NC12CC(C)(C)C3CCC1(C)CCCC32C` (stereo not drawn) [Compound 1b, N-(2,2,4,7a-tetramethyloctahydro-3aH-1,4-ethanoinden-3a-yl)propionamide] showed a melting point of 103 °C. Besides, in data set [3], the SI is 890 and the IC50 is 0.144 ± 0.019 µM. Besides, the CC50 in the data set “in vitro” was 128 ± 9.4 µM.
`CC(C)C(=O)NC12CC(C)(C)C3CCC1(C)CCCC32C` (stereo not drawn) [Compound 1c, N-(2,2,4,7a-tetramethyloctahydro-3aH-1,4-ethanoinden-3a-yl)isobutyramide] had a melting point of 103 °C. Moreover, in data set [3], the SI came out at 5000 and the IC50 was 0.21 ± 0.029 µM. In addition, the CC50 in “in vitro” is more than 1030 µM.
In the case of `CC1(C)CC2(NC(=O)c3ccccc3)C3(C)CCCC2(C)C1CC3` (stereo not drawn) [Compound 1d, N-(2,2,4,7a-tetramethyloctahydro-3aH-1,4-ethanoinden-3a-yl)benzamide], in data set [3], the SI was determined as 15 and the IC50 amounted to 9.2 ± 1.1 µM. This molecule also had a CC50 in “in vitro” of 141 ± 11.5 µM.
`CC1(C)CC2(N)C3(C)CCCC2(C)C1CC3.Cl` (stereo not drawn) [Compound 2, 2,2,4,7a-tetramethyloctahydro-3aH-1,4-ethanoinden-3a-amine hydrochloride] showed a melting point of 257.8 to 261.3 °C. In addition, in data set [3], the SI was found to be 34 and the IC50 was 0.45 ± 0.06 µM. Moreover, the CC50 in the data set “in vitro” was found to be 15.4 ± 1.2 µM.
For `CC(=S)NC12CC(C)(C)C3CCC1(C)CCCC32C` (stereo not drawn) [Compound 3, N-(2,2,4,7a-tetramethyloctahydro-3aH-1,4-ethanoinden-3a-yl)ethanethioamide], in data set [3], the SI is 1000 and the IC50 stood at 1.13 ± 0.19 µM. This molecule yielded a CC50 in the data set “in vitro” of more than 1130 µM.
Take `CC(C)=CCC/C(C)=C/CC/C(C)=C/CO` [Farnesol]: in the data set on HSV-1, the SI was 11.
Consider `CCOC(=O)C1=C[C@@H](OC(CC)CC)[C@H](NC(C)=O)[C@@H](N)C1` [Oseltamivir, reference compound], for which the 50% inhibitory concentration (IC50) in [3] is 0.31 ± 0.04 µM. Also, the CC50 in “in vitro” is more than 200 µM.
For `C[C@H]1CC[C@@]2(O)C(C)(C)[C@@H]3CC[C@@]2(C)[C@H]1C3` [Patchouli alcohol], the SI in data set [12] was 4.9.
As to `NC(=O)c1ncn([C@@H]2O[C@H](CO)[C@@H](O)[C@H]2O)n1` [Ribavirin, reference compound], in data set [3], the SI is given as more than 81 and the IC50 amounted to 24.6 ± 3.7 µM. This molecule displayed a CC50 at 72 h in “in vitro” of more than 2000 µM.
Regarding `CC(N)C12CC3CC(CC(C3)C1)C2` (stereo not drawn) [Rimantadine, reference compound], in [3], the SI is 5 and the IC50 amounted to 67 ± 4.9 µM. Besides, the CC50 in “in vitro” stood at 335 ± 27 µM.
For the molecule `C=C1CCC2OC2(C)CCC2C1CC2(C)C` (stereo not drawn) [beta-Caryophyllene oxide], in the data set with HSV-1, the SI was 25.

Broadly, the IC50 is the concentration that inhibits the measured activity by half. By LD50 is commonly meant the dose at which mortality reaches 50%. A higher LD50 goes with a less toxic substance. For orientation: melting point means the temperature of the solid-liquid transition.
